Molecular target: T1, human CRTH2 (Homo sapiens, UniProt Q9Y5Y4)
T1 sequence (Q9Y5Y4 1-395): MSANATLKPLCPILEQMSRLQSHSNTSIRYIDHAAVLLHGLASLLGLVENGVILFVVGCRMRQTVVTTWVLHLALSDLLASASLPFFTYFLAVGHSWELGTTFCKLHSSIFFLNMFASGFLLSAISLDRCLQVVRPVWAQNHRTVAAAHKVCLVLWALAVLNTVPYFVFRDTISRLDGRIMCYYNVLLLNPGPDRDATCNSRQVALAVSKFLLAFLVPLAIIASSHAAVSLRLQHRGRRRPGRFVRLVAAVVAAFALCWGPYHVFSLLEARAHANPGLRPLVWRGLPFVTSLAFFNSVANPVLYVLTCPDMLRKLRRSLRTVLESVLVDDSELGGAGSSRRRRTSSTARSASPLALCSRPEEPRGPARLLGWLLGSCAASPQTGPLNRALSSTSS
Assay: Human CRTH2 Receptor Binding Assay (whole cell, [3H]ramatroban)
Design: expressed in transfected cells; host or cells: CHO-K1
Settings: whole CHO-K1 cells stably expressing human CRTH2 and G-alpha16; 20 nM [3H]ramatroban; 1 hour, room temperature
Text: A whole cell receptor binding assay using [^3H]ramatroban as the competing radioactive ligand was employed to evaluate the compound binding activity to human CRTH2. The radioactive ligand [^3H]ramatroban was synthesized according to Sugimoto et. al. (Eur. J. Pharmacol. 524, 30-37, 2005) to a specific activity of 42 Ci/mmol.
A cell line stably expressing human CRTH2 was established by transfecting CHO-K1 cells with two mammalian expression vectors that harbored human CRTH2 and G-alpha16 cDNAs, respectively, using FuGene® 6 transfection reagent (from Roche). Stable clones expressing CRTH2 were selected by staining each clone with BM16 (BD Pharmingen™ from BD Biosciences, a division of Becton, Dickinson and Company), which is a rat monoclonal antibody to human CRTH2. The cells were maintained as monolayer cultures in Ham's F-12 medium containing 10% fetal bovine serum, 100 units/mL penicillin, 100 μg/mL streptomycin, 2 mM glutamine, 0.5 mg/mL G418 (geneticin) for CRTH2, and 0.2 mg/mL hygromycin-B (for G-alpha 16). For whole cell receptor binding assay, the monolayer cells were rinsed once with PBS (phosphate buffered saline), dissociated using ethylenediaminetetraacetate (Versene™ EDTA from Lonza Inc.), and suspended in PBS containing 10 mM MgCl2 and 0.06% BSA (bovine serum albumin) at 1.5×10^6 cells/mL.
The binding reactions (0.2 mL) were performed in 96-well plates at room temperature in PBS containing 1.5×10^5 cells, 10 mM MgCl2, 0.06% BSA, 20 nM [^3H]ramatroban, and test compound at various concentrations. After 1 hour of binding reactions, the cells were harvested on GF™/B filter microplates (microtiter plates with embedded glass fiber from PerkinElmer, Inc.) and washed 5 times with PBS using a Filtermate™ Harvester (a cell harvester that harvests and washes cells from microplates from PerkinElmer, Inc.). The radioactivities bound to the cells were determined using a microplate scintillation counter (TopCount® NXT, from PerkinElmer, Inc.) after adding 50 μL of Microscint™ 20 scintillation fluid (from PerkinElmer, Inc.) to each well of the filter plates. The radioactivity from non-specific binding was determined by replacing compound with 10 μM of 15(R)-15-methyl PGD2 (from Cayman Chemical Company) in the reaction mixtures. The radioactivity bound to the cells in the absence of compound (total binding) was determined by replacing compound with 0.25% of DMSO (dimethyl sulfoxide) in the reaction mixture. Specific binding data were obtained by subtracting the radioactivity of non-specific binding from each binding data.
The IC50 value is defined as the concentration of the tested compound that is required for 50% inhibition of total specific binding. In order to calculate the IC50 value, the percent inhibition data were determined for 7 concentrations for each compound. The percent inhibition for a compound at each concentration was calculated according to the following formula, [1-(specific binding in the presence of compound)/(total specific binding)]×100. The IC50 value was then obtained by fitting the percent inhibition data to a sigmoidal dose-response (4 parameter logistic) model in the XLfit® software Excel add-in program [from ID Business Solutions Ltd., model 205, where F(x)=(A+(B−A)/(1+((C/x)^D)))].

| Structure (SMILES) | IC50 |
| --- | --- |
| COc1cc(OC)cc(N2CCN(C(=O)c3c(C)c(CC(=O)O)cc4ccc(F)cc34)CC2)c1 [Example 2-14, {4-[4-(3,5-Dimethoxy-phenyl)-piperazine-1-carbonyl]-6-fluoro-3-methyl-naphthalen-2-yl}-acetic acid] | 0.0657 µM |
| Cc1c(CC(=O)O)cc2ccc(F)cc2c1C(=O)N1CCN(S(=O)(=O)C(F)(F)F)CC1 [Example 1-5, [6-Fluoro-3-methyl-4-(4-trifluoromethanesulfonyl-piperazine-1-carbonyl)-naphthalen-2-yl]-acetic acid] | 0.0076 µM |
| CC(C)(C)OC(=O)N1CCC(Oc2cc(CC(=O)O)cc3ccc(F)cc23)CC1 [Example 3-1, 4-(3-Carboxymethyl-7-fluoro-naphthalen-1-yloxy)-piperidine-1-carboxylic acid tert-butyl ester] | 0.0451 µM |
| Cc1c(CC(=O)O)cc2ccc(F)cc2c1C(=O)N1CCN(c2ccc(Cl)cc2)CC1 [Example 2-18, {4-[4-(4-Chloro-phenyl)-piperazine-1-carbonyl]-6-fluoro-3-methyl-naphthalen-2-yl}-acetic acid] | 0.0094 µM |
| O=C(O)Cc1cc(OC2CCN(C(=O)c3ccccc3)CC2)c2cc(F)ccc2c1 [Example 5-6, [4-(1-Benzoyl-piperidin-4-yloxy)-6-fluoro-naphthalen-2-yl]-acetic acid] | 0.0134 µM |
| Cc1c(CC(=O)O)cc2ccc(F)cc2c1C(=O)N1CCN(c2ccc(C(F)(F)F)cc2)CC1 [Example 2-19, {6-Fluoro-3-methyl-4-[4-(4-trifluoromethyl-phenyl)-piperazine-1-carbonyl]-naphthalen-2-yl}-acetic acid] | 0.01 µM |
| Cc1c(CC(=O)O)cc2ccc(F)cc2c1C(=O)N1CCN(S(=O)(=O)C2CCCC2)CC1 [Example 1-8, [4-(4-Cyclopentanesulfonyl-piperazine-1-carbonyl)-6-fluoro-3-methyl-naphthalen-2-yl]-acetic acid] | 0.0069 µM |
| Cc1c(CC(=O)O)cc2ccc(F)cc2c1C(=O)N1CCN(c2ccccc2Cl)CC1 [Example 2-20, {4-[4-(2-Chloro-phenyl)-piperazine-1-carbonyl]-6-fluoro-3-methyl-naphthalen-2-yl}-acetic acid] | 0.127 µM |
| O=C(O)Cc1cc(OC2CCN(C(=O)NCCc3ccccc3)CC2)c2cc(F)ccc2c1 [Example 6-5, [6-Fluoro-4-(1-phenethylcarbamoyl-piperidin-4-yloxy)-naphthalen-2-yl]-acetic acid] | 0.004 µM |
| CCS(=O)(=O)N1CCN(C(=O)c2c(C)c(CC(=O)O)cc3ccc(F)cc23)CC1 [Example 1-1, [4-(4-Ethanesulfonyl-piperazine-1-carbonyl)-6-fluoro-3-methyl-naphthalen-2-yl]-acetic acid] | 0.0192 µM |
| O=C(O)Cc1cc(OC2CCN(S(=O)(=O)c3ccc(F)cc3)CC2)c2cc(F)ccc2c1 [Example 4-8, {6-Fluoro-4-[1-(4-fluoro-benzenesulfonyl)-piperidin-4-yloxy]-naphthalen-2-yl}-acetic acid] | 0.0024 µM |
| O=C(O)Cc1cc(OC2CCN(S(=O)(=O)C3CCCC3)CC2)c2cc(F)ccc2c1 [Example 4-5, [4-(1-Cyclopentanesulfonyl-piperidin-4-yloxy)-6-fluoro-naphthalen-2-yl]-acetic acid] | 0.0099 µM |
| O=C(O)Cc1cc(OC2CCN(C(=O)Nc3ccccc3F)CC2)c2cc(F)ccc2c1 [Example 6-2, {6-Fluoro-4-[1-(2-fluoro-phenylcarbomoyl)-piperidin-4-yloxy]-naphthalen-2-yl}-acetic acid] | 0.0043 µM |
| Cc1c(CC(=O)O)cc2ccc(F)cc2c1C(=O)N1CCN(S(C)(=O)=O)CC1 [Example 1-3, [6-Fluoro-4-(4-methanesulfonyl-piperazine-1-carbonyl)-3-methyl-naphthalen-2-yl]-acetic acid] | 0.0212 µM |
| COc1ccc(N2CCN(C(=O)c3c(C)c(CC(=O)O)cc4ccc(F)cc34)CC2)cc1 [Example 2-12, {6-Fluoro-4-[4-(4-methoxy-phenyl)-piperazine-1-carbonyl]-3-methyl-naphthalen-2-yl}-acetic acid] | 0.106 µM |
| Cc1c(CC(=O)O)cc2ccc(F)cc2c1C(=O)N1CCN(c2ccc(C(F)(F)F)cn2)CC1 [Example 2-22, {6-Fluoro-3-methyl-4-[4-(5-trifluoromethyl-pyridin-2-yl)-piperazine-1-carbonyl]-naphthalen-2-yl}-acetic acid] | 0.0112 µM |
| O=C(O)Cc1cc(OC2CCN(C(=O)c3ccc(F)cc3)CC2)c2cc(F)ccc2c1 [Example 5-9, {6-Fluoro-4-[1-(4-fluoro-benzoyl)-piperidin-4-yloxy]-naphthalen-2-yl}-acetic acid] | 0.0313 µM |
| O=C(O)Cc1cc(OC2CCN(S(=O)(=O)c3ccccc3)CC2)c2cc(F)ccc2c1 [Example 4-6, [4-(1-Benzenesulfonyl-piperidin-4-yloxy)-6-fluoro-naphthalen-2-yl]-acetic acid] | 0.0032 µM |
| Cc1c(CC(=O)O)cc2ccc(F)cc2c1C(=O)N1CCN(S(=O)(=O)c2ccccc2F)CC1 [Example 1-14, {6-Fluoro-4-[4-(2-fluoro-benzenesulfonyl)-piperazine-1-carbonyl]-3-methyl-naphthalen-2-yl}-acetic acid] | 0.0048 µM |
| Cc1c(CC(=O)O)cc2ccc(F)cc2c1C(=O)N1CCN(c2ccccc2)CC1 [Example 2-4, [6-Fluoro-3-methyl-4-(4-phenyl-piperazine-1-carbonyl)-naphthalen-2-yl]-acetic acid] | 0.0591 µM |
| Cc1c(CC(=O)O)cc2ccc(F)cc2c1C(=O)N1CCN(S(=O)(=O)c2ccc(F)cc2)CC1 [Example 1-12, {6-Fluoro-4-[4-(4-fluoro-benzenesulfonyl)-piperazine-1-carbonyl]-3-methyl-naphthalen-2-yl}-acetic acid] | 0.0083 µM |
| Cc1c(CC(=O)O)cc2ccc(F)cc2c1C(=O)N1CC2(C1)CN(S(=O)(=O)Cc1ccccc1)C2 [Example 1-11, [6-Fluoro-3-methyl-4-(6-phenylmethanesulfonyl-2,6-diaza-spiro[3.3]heptane-2-carbonyl)-naphthalen-2-yl]-acetic acid] | 0.0883 µM |
| CCC(=O)N1CCC(Oc2cc(CC(=O)O)cc3ccc(F)cc23)CC1 [Example 5-2, [6-Fluoro-4-(1-propionyl-piperidin-4-yloxy)-naphthalen-2-yl]-acetic acid] | 0.12 µM |
| Cc1c(CC(=O)O)cc2ccc(F)cc2c1C(=O)N1CCN(S(=O)(=O)c2cccc(F)c2)CC1 [Example 1-16, {6-Fluoro-4-[4-(3-fluoro-benzenesulfonyl)-piperazine-1-carbonyl]-3-methyl-naphthalen-2-yl}-acetic acid] | 0.0031 µM |
| CCS(=O)(=O)N1CCN(C(=O)c2cc(CC(=O)O)cc3ccc(F)cc23)CC1 [Example 1-2, [4-(4-Ethanesulfonyl-piperazine-1-carbonyl)-6-fluoro-naphthalen-2-yl]-acetic acid] | 0.0072 µM |
| Cc1c(CC(=O)O)cc2ccc(F)cc2c1C(=O)N1CCN(c2c(Cl)cncc2Cl)CC1 [Example 2-23, {4-[4-(3,5-Dichloro-pyridin-4-yl)-piperazine-1-carbonyl]-6-fluoro-3-methyl-naphthalen-2-yl}-acetic acid] | 0.0635 µM |
| Cc1c(CC(=O)O)cc2ccc(F)cc2c1C(=O)N1CCN(S(=O)(=O)c2ccc(F)c(F)c2)CC1 [Example 1-15, {4-[4-(3,4-Difluoro-benzenesulfonyl)-piperazine-1-carbonyl]-6-fluoro-3-methyl-naphthalen-2-yl}-acetic acid] | 0.0026 µM |

Source: US8188090B2, “Naphthylacetic acids” (Hoffman-La Roche Inc., priority 2008, dated 2012)
